According to ChEMBL document CHEMBL1268857, “Dolabellane Diterpenoids from the South Atlantic Gorgonian Convexella magelhaenica” (J Nat Prod, 2010):

Tests used:
PANC-1 = test: Cytotoxicity against human PANC1 cells; assay type: functional, cell-based
[1] = Cytotoxicity against mouse LM3 cells; assay type: functional, cell-based

| Structure (SMILES) | IC50 (PANC-1) [µM] | IC50 [1] [µM] |
| --- | --- | --- |
| C=C(C)[C@@H]1CC[C@]2(C)C/C=C(\C)CC/C=C(\C)C(=O)C[C@@H]12 | 39.8 | 2.5 |
| C=C(C)[C@@H]1[C@@H](OC(C)=O)C[C@]2(C)[C@H](OC(C)=O)/C=C(\C)CC/C=C(\C)C(=O)C[C@@H]12 | 398 | 17.8 |
